In publication PMC8143339, “PK/PD Modeling of the PDE7 Inhibitor—GRMS-55 in a Mouse Model of Autoimmune Hepatitis” (Pharmaceutics, 2021):
Like-named read-outs stand apart in the source and are kept apart here.

Test: Pharmacokinetic study after IP administration
Format: in vivo, female BALB/c mice
Details: for half-life: ip
Experimental: Pharmacokinetics of GRMS-55 was evaluated in female BALB/c mice following intraperitoneal (IP) administration of this compound at doses of 50 and 100 mg·kg^−1. The investigated compound was dissolved in a vehicle composed of DMSO, PEG 400, and water for injection at a ratio of 25:25:50 (v/v/v). Animals were exsanguinated at 5, 15, 30, 60, 90, and 120 min following GRMS-55 administration. Blood samples were collected, allowed to clot for 30 min at room temperature, and centrifuged at 3000× g for 10 min. The serum was separated and stored at −20 °C until analysis.
To analyze GRMS-55 concentrations in the mouse serum, we used the previously developed HPLC method with UV detection. A detailed description of this method was published in a supplementary material of our previous publication. Briefly, 10 μL of 4-(8-((furan-2-ylmethyl)amino)-1,3-dimethyl-2,6-dioxo-1,2,3,6-tetrahydro-7H-purin-7-yl)-N′-(2-hydroxybenzylidene)butanehydrazide solution as internal standard (IS) was added to tubes containing 100 μL of the analyzed serum. The samples were mixed with 20 μL of 1 M hydrochloric acid solution, subjected to extraction with 1 mL of dichloromethane, and centrifuged at 10,000× g for 8 min. The organic layers were transferred to new tubes and evaporated with nitrogen at 37 °C. Dry residues were then dissolved in 100 μL of mobile phase and transferred to glass vial inserts for HPLC analysis (LaChrom Elite, Merck-Hitachi, Darmstadt, Germany). The separation was achieved on a LiChrospher 100 RP-18 (250 × 4 mm) column (particle size of 5 μm) protected with a LiChroCART guard column (Merck, Darmstadt, Germany) using the mobile phase composed of 20 mM solution of KH2PO4 (pH = 4.5) and acetonitrile at a ratio of 45:55 (v/v) pumped at a flow rate of 1 mL min^−1 at ambient temperature. The analytical wavelength was set to 209 nm. In these conditions, the retention time of GRMS-55 was 9.2 min and for IS it was 5.3 min. The analytical method was validated according to FDA Bioanalytical Method Validation, Guidance for Industry. Specificity of the method was estimated by analyzing six different independent samples of the blank serum. […] The calibration curve was constructed by plotting the ratios of the peak area of the studied compound to IS vs. concentrations of GRMS-55 and it was linear in the tested concentration range, i.e., 0.050–20 mg·L^−1. Within runs and between runs, precision and accuracy met the acceptance criteria, i.e., they were less than 15% expressed as coefficients of variation % (CVs%) or ±15% of the nominal concentrations, respectively, for all quality control levels. Recoveries of the analyzed compound and IS assessed by comparing the peak areas of extracted samples with corresponding extracts of blanks spiked with the analyte post-extraction ranged from 94% to 98%. The lower limit of quantification was 0.05 mg·L^−1. GRMS-55 in serum samples was stable at room temperature for at least 12 h and at –20 °C for a period of 12 months. The stock solutions were stable for over one month at 4 °C.
Initially, non-compartmental analysis of the concentration–time data of GRMS-55 was performed. Subsequently, pharmacokinetic modeling was conducted. Different compartmental models with linear and non-linear elimination were tested, and the final pharmacokinetic model with the best goodness-of-fit criteria was chosen. Several measures of goodness-of-fit were evaluated, i.e., value of the objective function, Akaike Information Criterion, Bayesian Information Criterion, visual inspection of fitting, and a precision of parameter estimates expressed as CVs%. Pharmacokinetic model parameters were estimated using the ADAPT 5 software (BMSR, Los Angeles, CA, USA) based on the weighted least squares algorithm. […]

ka, absorption rate constant (IP 50 or 100 mg/kg, one-compartment model): 1.49 h⁻¹ | half-life (female, BALB/c, mouse, serum, mice, IP, read-out: terminal half-life): ~30 min | half-life (female, BALB/c, mouse, serum, non-compartmental approach, IP, read-out: serum terminal half-life (converted)): ~30 min | half-life (female, BALB/c, mouse, serum, read-out: absorption half-life (ln2/ka)): 27.9 min | half-life (female, BALB/c, mouse, serum, read-out: elimination half-life (ln2/ke)): 9.1 min | Vd/F (female, BALB/c, mouse, serum, IP 50 or 100 mg/kg, one-compartment model, read-out: Vd/F, apparent volume of distribution): 1.81 L/kg | k el (female, BALB/c, mouse, serum, IP 50 or 100 mg/kg, one-compartment model, read-out: ke, elimination rate constant (converted)): 0.00127 s⁻¹
SMILES: Cn1c(=O)c2c(nc(NCCc3ccccc3)n2CCCC(=O)NN=Cc2ccccc2O)n(C)c1=O [GRMS-55, 4-(1,3-dimethyl-2,6-dioxo-8-(phenethylamino)-1,2,3,6-tetrahydro-7H-purin-7-yl)-N′-(2-hydroxybenzylidene)butanehydrazide]
